From patent publication US10246449B2, “1,2,3 triazole-thiazole compounds, process for preparation and use thereof” (Council of Scientific & Industrial Research, priority 2015, dated 2019)

Row | SMILES | melting point [°C]
1 | OCCCCc1cn(Cc2csc(-c3ccc(Cl)cc3)n2)nn1 [Compound 8, 4-(1-((2-(4-Chlorophenyl)thiazol-4-yl)methyl)-1H-1,2,3-triazol-4-yl)butan-1-ol] | 157 to 159
2 | Clc1ccc(-c2nc(Cn3cc(C4CC4)nn3)cs2)cc1 [Compound 3, 2-(4-Chlorophenyl)-4-((4-cyclopropyl-1H-1,2,3-triazol-1-yl)methyl)thiazole] | 109 to 111
3 | Clc1ccc(-c2nc(Cn3cc(COC4CCCCO4)nn3)cs2)cc1 (centres unmarked) [Compound 6, 2-(4-Chlorophenyl)-4-((4-(((tetrahydro-2H-pyran-2-yl)oxy)methyl)-1H-1,2,3-triazol-1-yl)methyl)thiazole] | 92 to 94
4 | OCc1cn(Cc2csc(-c3ccc(Cl)cc3)n2)nn1 [Compound 4, (1-((2-(4-Chlorophenyl)thiazol-4-yl)methyl)-1H-1,2,3-triazol-4-yl)methanol] | 152 to 154
5 | CCCCCc1cn(Cc2csc(-c3ccc(Cl)cc3)n2)nn1 [Compound 5, 2-(4-Chlorophenyl)-4-((4-pentyl-1H-1,2,3-triazol-1-yl)methyl)thiazole] | 88 to 90
6 | CCOC(=O)c1cn(Cc2csc(-c3ccc(Cl)cc3)n2)nn1 [Compound 7, Ethyl 1-((2-(4-chlorophenyl)thiazol-4-yl)methyl)-1H-1,2,3-triazole-4-carboxylate] | 149 to 151
7 | CCCCc1cn(Cc2csc(-c3ccc(Cl)cc3)n2)nn1 [Compound 2, 4-((4-Butyl-1H-1,2,3-triazol-1-yl)methyl)-2-(4-chlorophenyl)thiazole] | 98 to 99
8 | Clc1ccc(-c2nc(Cn3nncc3-c3ccccc3)cs2)cc1 [Compound 9, 2-(4-chlorophenyl)-4-((5-phenyl-1H-1,2,3-triazol-1-yl)methyl)thiazole] | 175 to 177
